Assays:
Purified diglycosidase = experiment: Influence of free glucose on diglycosidase activity; format: biochemical, Penicillium multicolor IAM7153; conditions: isolated aglycon amount at glucose 0% and 0.5 hour = 100%
Crude diglycosidase = experiment: Examination of pH in the conversion into isoflavone aglycons by diglycosidase using soybean materials; format: biochemical, Penicillium multicolor IAM7153; conditions: for Decomposition efficiency of glycitin family in roasted soy flour / Decomposition efficiency of glycitin family in soymilk: 55° C.
How it was run: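 HPLC readout: isoflavone glycosides vs aglycons. Substrates: 50 mg soy material (roasted flour, soymilk, defatted bean, concentrated protein), pH 2–11 (HCl/NaOH). Crude diglycosidase solution 1.88 AU/mL, matched pH; 55° C; quenched with ethanol at 0/1/3/6 h; centrifuged 15,000 rpm, 4° C, 10 min.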

COc1cc2c(=O)c(-c3ccc(O)cc3)coc2cc1O[C@@H]1O[C@H](CO)[C@@H](O)[C@H](O)[C@H]1O [glycitin]
Isolation of isoflavone aglycons by diglycosidase in presence of glucose (Purified diglycosidase; Glucose concentration 0 %): 100% | Isolation of isoflavone aglycons by diglycosidase in presence of glucose (Purified diglycosidase; Glucose concentration 2 %): 96% | Isolation of isoflavone aglycons by diglycosidase in presence of glucose (Purified diglycosidase; Glucose concentration 4 %): 99.7% | Isolation of isoflavone aglycons by diglycosidase in presence of glucose (Purified diglycosidase; Glucose concentration 8 %): 100.1% | Isolation of isoflavone aglycons by diglycosidase in presence of glucose (Purified diglycosidase; Glucose concentration 20 %): 92.8% | Decomposition efficiency of glycitin family in concentrated soybean protein (Crude diglycosidase; pH1.6, heat treatment of enzyme: no, reaction time 0 h): 52.3% | Decomposition efficiency of glycitin family in concentrated soybean protein (Crude diglycosidase; pH1.6, heat treatment of enzyme: no, reaction time 1 h): 52.9% | Decomposition efficiency of glycitin family in concentrated soybean protein (Crude diglycosidase; pH1.6, heat treatment of enzyme: no, reaction time 3 h): 54.3% | Decomposition efficiency of glycitin family in concentrated soybean protein (Crude diglycosidase; pH1.6, heat treatment of enzyme: no, reaction time 6 h): 56.1% | Decomposition efficiency of glycitin family in concentrated soybean protein (Crude diglycosidase; pH1.6, heat treatment of enzyme: yes, reaction time 6 h): 57.9% | Decomposition efficiency of glycitin family in roasted soy flour (Crude diglycosidase; pH2, heat treatment of enzyme no, reaction time 0 h): 56.8 | Decomposition efficiency of glycitin family in roasted soy flour (Crude diglycosidase; pH2, heat treatment of enzyme no, reaction time 1 h): 56.6 | Decomposition efficiency of glycitin family in roasted soy flour (Crude diglycosidase; pH2, heat treatment of enzyme no, reaction time 3 h): 56.3 | Decomposition efficiency of glycitin family in roasted soy flour (Crude diglycosidase; pH2, heat treatment of enzyme no, reaction time 6 h): 54.4 | Decomposition efficiency of glycitin family in roasted soy flour (Crude diglycosidase; pH2, heat treatment of enzyme yes, reaction time 6 h): 54.4 | Decomposition efficiency of glycitin family in soymilk (Crude diglycosidase; pH2.3, heat treatment of enzyme no, reaction time 0 h): 50.2 | Decomposition efficiency of glycitin family in soymilk (Crude diglycosidase; pH2.3, heat treatment of enzyme no, reaction time 1 h): not detected | Decomposition efficiency of glycitin family in soymilk (Crude diglycosidase; pH2.3, heat treatment of enzyme no, reaction time 3 h): not detected | Decomposition efficiency of glycitin family in soymilk (Crude diglycosidase; pH2.3, heat treatment of enzyme no, reaction time 6 h): not detected | Decomposition efficiency of glycitin family in soymilk (Crude diglycosidase; pH2.3, heat treatment of enzyme yes, reaction time 6 h): 51.7 | Decomposition efficiency of glycitin family in defatted soybean (Crude diglycosidase; pH2.6, heat treatment of enzyme: no, reaction time 0 h): not detected | Decomposition efficiency of glycitin family in defatted soybean (Crude diglycosidase; pH2.6, heat treatment of enzyme: no, reaction time 1 h): not detected | Decomposition efficiency of glycitin family in defatted soybean (Crude diglycosidase; pH2.6, heat treatment of enzyme: no, reaction time 3 h): not detected | Decomposition efficiency of glycitin family in defatted soybean (Crude diglycosidase; pH2.6, heat treatment of enzyme: no, reaction time 6 h): not detected | Decomposition efficiency of glycitin family in defatted soybean (Crude diglycosidase; pH2.6, heat treatment of enzyme: yes, reaction time 6 h): not detected | Decomposition efficiency of glycitin family in concentrated soybean protein (Crude diglycosidase; pH2.7, heat treatment of enzyme: no, reaction time 0 h): 52.3% | Decomposition efficiency of glycitin family in concentrated soybean protein (Crude diglycosidase; pH2.7, heat treatment of enzyme: no, reaction time 1 h): 38.0% | Decomposition efficiency of glycitin family in concentrated soybean protein (Crude diglycosidase; pH2.7, heat treatment of enzyme: no, reaction time 3 h): 37.2% | Decomposition efficiency of glycitin family in concentrated soybean protein (Crude diglycosidase; pH2.7, heat treatment of enzyme: no, reaction time 6 h): 33.7% | Decomposition efficiency of glycitin family in concentrated soybean protein (Crude diglycosidase; pH2.7, heat treatment of enzyme: yes, reaction time 6 h): 52.7% | Decomposition efficiency of glycitin family in roasted soy flour (Crude diglycosidase; pH3, heat treatment of enzyme no, reaction time 0 h): 56.8 | Decomposition efficiency of glycitin family in roasted soy flour (Crude diglycosidase; pH3, heat treatment of enzyme no, reaction time 1 h): not detected | Decomposition efficiency of glycitin family in roasted soy flour (Crude diglycosidase; pH3, heat treatment of enzyme no, reaction time 3 h): not detected | Decomposition efficiency of glycitin family in roasted soy flour (Crude diglycosidase; pH3, heat treatment of enzyme no, reaction time 6 h): not detected | Decomposition efficiency of glycitin family in roasted soy flour (Crude diglycosidase; pH3, heat treatment of enzyme yes, reaction time 6 h): 55.1 | Decomposition efficiency of glycitin family in defatted soybean (Crude diglycosidase; pH3.4, heat treatment of enzyme: no, reaction time 0 h): not detected | Decomposition efficiency of glycitin family in defatted soybean (Crude diglycosidase; pH3.4, heat treatment of enzyme: no, reaction time 1 h): not detected | Decomposition efficiency of glycitin family in defatted soybean (Crude diglycosidase; pH3.4, heat treatment of enzyme: no, reaction time 3 h): not detected | Decomposition efficiency of glycitin family in defatted soybean (Crude diglycosidase; pH3.4, heat treatment of enzyme: no, reaction time 6 h): not detected | Decomposition efficiency of glycitin family in defatted soybean (Crude diglycosidase; pH3.4, heat treatment of enzyme: yes, reaction time 6 h): not detected | Decomposition efficiency of glycitin family in soymilk (Crude diglycosidase; pH3.5, heat treatment of enzyme no, reaction time 0 h): 50.2 | Decomposition efficiency of glycitin family in soymilk (Crude diglycosidase; pH3.5, heat treatment of enzyme no, reaction time 1 h): not detected | Decomposition efficiency of glycitin family in soymilk (Crude diglycosidase; pH3.5, heat treatment of enzyme no, reaction time 3 h): not detected | Decomposition efficiency of glycitin family in soymilk (Crude diglycosidase; pH3.5, heat treatment of enzyme no, reaction time 6 h): not detected | Decomposition efficiency of glycitin family in soymilk (Crude diglycosidase; pH3.5, heat treatment of enzyme yes, reaction time 6 h): 54.2 | Decomposition efficiency of glycitin family in concentrated soybean protein (Crude diglycosidase; pH3.7, heat treatment of enzyme: no, reaction time 0 h): 52.4% | Decomposition efficiency of glycitin family in concentrated soybean protein (Crude diglycosidase; pH3.7, heat treatment of enzyme: no, reaction time 1 h): not detected | Decomposition efficiency of glycitin family in concentrated soybean protein (Crude diglycosidase; pH3.7, heat treatment of enzyme: no, reaction time 3 h): not detected | Decomposition efficiency of glycitin family in concentrated soybean protein (Crude diglycosidase; pH3.7, heat treatment of enzyme: no, reaction time 6 h): not detected | Decomposition efficiency of glycitin family in concentrated soybean protein (Crude diglycosidase; pH3.7, heat treatment of enzyme: yes, reaction time 6 h): 52.4% | Decomposition efficiency of glycitin family in roasted soy flour (Crude diglycosidase; pH4, heat treatment of enzyme no, reaction time 0 h): 56.6 | Decomposition efficiency of glycitin family in roasted soy flour (Crude diglycosidase; pH4, heat treatment of enzyme no, reaction time 1 h): not detected | Decomposition efficiency of glycitin family in roasted soy flour (Crude diglycosidase; pH4, heat treatment of enzyme no, reaction time 3 h): not detected | Decomposition efficiency of glycitin family in roasted soy flour (Crude diglycosidase; pH4, heat treatment of enzyme no, reaction time 6 h): not detected | Decomposition efficiency of glycitin family in roasted soy flour (Crude diglycosidase; pH4, heat treatment of enzyme yes, reaction time 6 h): 55.1 | Decomposition efficiency of glycitin family in soymilk (Crude diglycosidase; pH4.8, heat treatment of enzyme no, reaction time 0 h): 50.7 | Decomposition efficiency of glycitin family in soymilk (Crude diglycosidase; pH4.8, heat treatment of enzyme no, reaction time 1 h): not detected | Decomposition efficiency of glycitin family in soymilk (Crude diglycosidase; pH4.8, heat treatment of enzyme no, reaction time 3 h): not detected | Decomposition efficiency of glycitin family in soymilk (Crude diglycosidase; pH4.8, heat treatment of enzyme no, reaction time 6 h): not detected | Decomposition efficiency of glycitin family in soymilk (Crude diglycosidase; pH4.8, heat treatment of enzyme yes, reaction time 6 h): 54.3 | Decomposition efficiency of glycitin family in defatted soybean (Crude diglycosidase; pH4.8, heat treatment of enzyme: no, reaction time 0 h): not detected | Decomposition efficiency of glycitin family in defatted soybean (Crude diglycosidase; pH4.8, heat treatment of enzyme: no, reaction time 1 h): not detected
